Reference: ChEMBL document CHEMBL5579884, “Cellular, Structural Basis, and Recent Progress for Targeting Murine Double Minute X (MDMX) in Tumors” (J Med Chem, 2024)
One block for each molecule: values may come before it.

Tests used:
MCF7 [1] = assay: Antiproliferative activity against human MCF7 cells assessed as reduction in cell viability measured for 48 hrs by MTT assay; conditions: MCF7, 48 h
OCI-AML-3 = assay: Antiproliferative activity against human OCI-AML-3 cells assessed as reduction in cell viability measured for 48 hrs by MTT assay; conditions: OCI-AML-3, 48 h
HCT-116 [2] = assay: Antiproliferative activity against human HCT-116 cells assessed as reduction in cell viability measured for 48 hrs by MTT assay; conditions: HCT-116, 48 h
A549 = assay: Antiproliferative activity against human A549 cells assessed as reduction in cell viability measured for 48 hrs by MTT assay; conditions: A549, 48 h
LNCaP [3] = assay: Antiproliferative activity against human LNCaP cells assessed as reduction in cell viability incubated for 24 hrs by Celltiter-Glo assay
PC-3 [4] = assay: Antiproliferative activity against human PC-3 cells assessed as reduction in cell viability incubated for 24 hrs by Celltiter-Glo assay; conditions: PC-3, 24 h
DU-145 [5] = assay: Antiproliferative activity against human DU-145 cells assessed as reduction in cell viability incubated for 24 hrs by Celltiter-Glo assay; conditions: DU-145, 24 h
[6] = Antiproliferative activity against human RWPE-1 cells assessed as reduction in cell viability incubated for 24 hrs by Celltiter-Glo assay
[7] = Cytotoxicity against human Triple-negative breast cancer cell; conditions: Breast carcinoma cell
Breast cancer cell line = assay: Cytotoxicity against human Breast cancer cell line
HCT-116 [8] = assay: Antiproliferative activity against human HCT-116 cells assessed as reduction in cell growth
SJSA-1 = assay: Antiproliferative activity against human SJSA-1 cells assessed as reduction in cell growth
SH-SY5Y = assay: Antiproliferative activity against human SH-SY5Y cells assessed as reduction in cell growth
[9] = Antiproliferative activity against human BEAS-2B cells assessed as reduction in cell growth
L02 = assay: Antiproliferative activity against human L02 cells assessed as reduction in cell growth
[10] = Antiproliferative activity against human IMR-90 cells assessed as reduction in cell viability incubated for 24 hrs by Celltiter-Glo assay
U-87 MG = assay: Antiproliferative activity against human U-87 MG cells assessed as reduction in cell growth incubated for 72 hrs by MTS assay
MCF7 [11] = assay: Antiproliferative activity against human MCF7 cells assessed as reduction in cell growth incubated for 72 hrs by MTS assay; conditions: MCF7, 72 h
[12] = Antiproliferative activity against human U373 MG cells assessed as reduction in cell growth incubated for 72 hrs by MTS assay
[13] = Antiproliferative activity against human C20/A4 cells assessed as reduction in cell growth incubated for 72 hrs by MTS assay
T98G = assay: Antiproliferative activity against human T98G cells assessed as reduction in cell growth incubated for 72 hrs by MTS assay
Protein Mdm4 [14] = target: T1, Protein Mdm4 (Homo sapiens, UniProt O15151); assay: Inhibition of MDMX (unknown origin)
T1 sequence (O15151 whole entry): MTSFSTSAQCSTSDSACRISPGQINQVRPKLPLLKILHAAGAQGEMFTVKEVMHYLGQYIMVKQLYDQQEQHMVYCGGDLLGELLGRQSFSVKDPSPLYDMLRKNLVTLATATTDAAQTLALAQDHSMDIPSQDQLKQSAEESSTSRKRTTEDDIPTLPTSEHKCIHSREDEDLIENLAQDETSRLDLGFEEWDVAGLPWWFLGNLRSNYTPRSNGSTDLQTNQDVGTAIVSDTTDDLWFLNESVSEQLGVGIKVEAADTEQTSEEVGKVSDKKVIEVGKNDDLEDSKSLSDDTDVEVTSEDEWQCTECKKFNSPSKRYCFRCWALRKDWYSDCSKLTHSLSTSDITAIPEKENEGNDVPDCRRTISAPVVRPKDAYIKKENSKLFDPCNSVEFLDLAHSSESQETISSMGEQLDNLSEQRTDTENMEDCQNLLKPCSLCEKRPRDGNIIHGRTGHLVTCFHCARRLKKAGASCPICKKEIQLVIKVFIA

[15] = target: T2, E3 ubiquitin-protein ligase Mdm2 (Homo sapiens, UniProt Q00987); assay: Inhibition of MDM2 (unknown origin)
HCT-116 [16] = assay: Antiproliferative activity against human HCT-116 cells assessed as reduction in cell viability incubated for 24 hrs by Celltiter-Glo assay; conditions: HCT-116, 24 h
[17] = target: T2, E3 ubiquitin-protein ligase Mdm2; assay: Binding affinity to MDM2 (unknown origin) assessed as dissociation constant
[18] = target: T2, E3 ubiquitin-protein ligase Mdm2
HL-60 = assay: Antiproliferative activity against human HL-60 cells assessed as reduction in cell viability incubated for 24 hrs by Celltiter-Glo assay; conditions: HL-60, 24 h
[19] = target: T2, E3 ubiquitin-protein ligase Mdm2; assay: Binding affinity to MDM2 (unknown origin) assessed as inhibition constant
Protein Mdm4 [20] = target: T1, Protein Mdm4; assay: Binding affinity to MDMX (unknown origin) assessed as inhibition constant
OCI-AML2 = assay: Antiproliferative activity against human OCI-AML2 cells assessed as reduction in cell viability incubated for 24 hrs by Celltiter-Glo assay; conditions: OCI-AML2, 24 h
MCF7 [21] = assay: Antiproliferative activity against human MCF7 cells assessed as reduction in cell viability incubated for 24 hrs by Celltiter-Glo assay; conditions: MCF7, 24 h
MKN-45 = assay: Cytotoxicity against human MKN-45 cells assessed as reduction in cell growth incubated for 48 hrs by MTT assay; conditions: MKN-45, 48 h
BGC-823 = assay: Cytotoxicity against human BGC-823 cells assessed as reduction in cell growth incubated for 48 hrs by MTT assay; conditions: BGC-823, 48 h
SGC-7901 = assay: Cytotoxicity against human SGC-7901 cells assessed as reduction in cell growth incubated for 48 hrs by MTT assay; conditions: SGC-7901, 48 h
[22] = system: KATO III stomach cancer cell line; assay: Cytotoxicity against human KATO III stomach cancer cell line assessed as reduction in cell growth incubated for 48 hrs by MTT assay
HGC-27 = assay: Cytotoxicity against human HGC-27 cells assessed as reduction in cell growth incubated for 48 hrs by MTT assay; conditions: HGC-27, 48 h
NCI-N87 = assay: Cytotoxicity against human NCI-N87 cells assessed as reduction in cell growth incubated for 48 hrs by MTT assay; conditions: NCI-N87, 48 h
MCF7 [23] = assay: Cytotoxicity against human MCF7 cells assessed as reduction in cell growth
ZR-75-1 = assay: Cytotoxicity against human ZR-75-1 cells assessed as reduction in cell growth
ZR-75-30 = assay: Cytotoxicity against human ZR-75-30 cells assessed as reduction in cell growth
BT-474 = assay: Cytotoxicity against human BT-474 cells assessed as cell growth inhibition
BT-549 = assay: Cytotoxicity against human BT-549 cells assessed as cell growth inhibition
Prostatic carcinoma cell = assay: Cytotoxicity against human Prostatic carcinoma cell
MDA-MB-175-VII = assay: cells; conditions: Homo sapiens
Description: Cytotoxicity against human MDA-MB-175-VII cells assessed as reduction in cell growth

Hs-578T = assay: cells; conditions: Homo sapiens
Description: Cytotoxicity against human Hs-578T cells assessed as cell growth inhibition

Protein Mdm4 [24] = target: T1, Protein Mdm4
MCF7 [25] = assay: Antiproliferative activity against human MCF7 cells assessed as reduction in cell growth
HCT-116 [26] = assay: Antiproliferative activity against human HCT-116 cells assessed as reduction in cell growth by MTT assay
RKO = assay: Antiproliferative activity against human RKO cells assessed as reduction in cell growth
LNCaP [27] = assay: Antiproliferative activity against human LNCaP cells assessed as reduction in cell growth
LNCaP C4-2 = assay: Antiproliferative activity against human C4-2 cells assessed as reduction in cell growth
SW480 = assay: Antiproliferative activity against human SW480 cells assessed as reduction in cell growth
MDA-MB-435 = assay: Antiproliferative activity against human MDA-MB-435 cells assessed as reduction in cell growth
LAPC4 = assay: Antiproliferative activity against human LAPC4 cells assessed as reduction in cell growth
DU-145 [28] = assay: Antiproliferative activity against human DU-145 cells assessed as reduction in cell growth
PC-3 [29] = assay: Antiproliferative activity against human PC-3 cells assessed as reduction in cell growth

T2 sequence (Q00987 whole entry): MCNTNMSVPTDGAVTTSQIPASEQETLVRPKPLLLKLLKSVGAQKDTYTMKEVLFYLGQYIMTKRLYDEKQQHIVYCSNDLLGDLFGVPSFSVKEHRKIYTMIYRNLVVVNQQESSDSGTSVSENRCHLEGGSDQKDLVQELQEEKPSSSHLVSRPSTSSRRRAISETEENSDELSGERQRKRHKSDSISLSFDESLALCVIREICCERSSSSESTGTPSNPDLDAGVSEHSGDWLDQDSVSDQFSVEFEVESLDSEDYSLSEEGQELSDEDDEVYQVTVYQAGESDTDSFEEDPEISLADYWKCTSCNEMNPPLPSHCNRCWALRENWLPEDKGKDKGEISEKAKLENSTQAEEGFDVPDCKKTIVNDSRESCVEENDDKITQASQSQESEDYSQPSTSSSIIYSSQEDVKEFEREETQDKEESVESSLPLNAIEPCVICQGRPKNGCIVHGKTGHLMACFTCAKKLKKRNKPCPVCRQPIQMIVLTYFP

Molecule: N#Cc1c2ccc(N)cc2nc2cc(N)ccc12
- IC50 (MCF7 [1]): 4300 nM
- IC50 (OCI-AML-3): 1300 nM
- IC50 (HCT-116 [2]): 2800 nM
- IC50 (A549): 5300 nM

Molecule: COC(C)(C)CCC[C@](C)(O)[C@H]1CC[C@]2(C)[C@@H]1[C@H](O)C[C@@H]1[C@@]3(C)CC[C@H](O)C(C)(C)[C@@H]3CC[C@]12C
- IC50 (LNCaP [3]): 9600 nM
- IC50 (PC-3 [4]): 4400 nM
- IC50 (DU-145 [5]): 7600 nM
- IC50 at 24 h [6]: > 50000 nM

Molecule: Brc1c2ccccc2c(C[P+](c2ccccc2)(c2ccccc2)c2ccccc2)c2ccccc12
- IC50 [7]: 3700 nM
- IC50 (Breast cancer cell line): 3700 nM

Molecule: O=C(CCC(=O)N1CCNCC1)C(c1ccc(Cl)cc1)C(C(=O)c1ccc(Cl)cc1)c1ccc(F)cc1Cl (stereo not given)
- IC50 (HCT-116 [8]): 700 nM
- IC50 (SJSA-1): 600 nM
- IC50 (SH-SY5Y): 700 nM
- IC50 [9]: 16300 nM
- IC50 (L02): 12600 nM

Molecule: C=C1C(=O)O[C@H]2C[C@H](C)[C@@]34C[C@]5(C(=O)OC6CC(C)=C([C@H](C)CCCOC(C)=O)[C@@H](O)C65)[C@@H](C(C)=C3C[C@H]12)C4OC(C)=O (stereo not given in full)
- IC50 at 24 h [10]: > 50000 nM
- IC50 (LNCaP [3]): 1700 nM
- IC50 (PC-3 [4]): 1300 nM
- IC50 (DU-145 [5]): 4000 nM

Molecule: Cc1c(Cl)ccc2c(/C=C3\NC(=O)N(Cc4ccc(F)c(F)c4)C3=O)c[nH]c12
- IC50 (U-87 MG): 1400 nM
- IC50 (MCF7 [11]): 1900 nM
- IC50 [12]: 1000 nM
- IC50 at 72 h [13]: 4500 nM
- IC50 (T98G): > 10000 nM

Molecule: CC(C)C(=O)Nc1ccccc1SC(=O)C(C)C
- IC50 (Protein Mdm4 [14]): 1500 nM
- IC50 [15]: 13100 nM
- IC50 (MCF7 [1]): 18000 nM
- IC50 (OCI-AML-3): 18000 nM
- IC50 (HCT-116 [2]): 16000 nM
- IC50 (A549): > 30000 nM

Molecule: Cc1ccnc(NC(c2cccc(Cl)c2Cl)c2ccc3cccnc3c2O)c1 (stereo not given)
- IC50 (HCT-116 [16]): 600 nM

- Kd [17]: < 0.1 nM
Molecule: C[C@@H](c1ccc(Cl)cc1Cl)n1cnc(-c2ccccc2)c1-c1c(C(=O)Nc2cc(C(=O)O)ccc2N2CCC(N3CCCOC3=O)CC2)[nH]c2cc(Cl)ccc12

- Kd [18]: 149000 nM
Molecule: Ac-ETFLDLWKLELEN-NH2

Molecule: CN(C)C1CCN(C(=O)CCC(=O)C(c2ccc(Cl)cc2)C(C(=O)c2ccc(Cl)cc2)c2ccc(F)cc2Cl)CC1 (stereo not given)
- IC50 (HCT-116 [8]): 700 nM
- IC50 (SJSA-1): 600 nM
- IC50 (SH-SY5Y): 500 nM
- IC50 [9]: 18000 nM
- IC50 (L02): 15900 nM

Molecule: O=c1cc(-c2ccc(Oc3c(O)cc4oc(-c5ccc(O)cc5)cc(=O)c4c3O)cc2)oc2cc(O)cc(O)c12 [HINOKIFLAVONE]
- IC50 (HL-60): 11000 nM
- Ki [19]: 13000 nM
- Ki (Protein Mdm4 [20]): 12000 nM
- IC50 (HCT-116 [16]): 14200 nM
- IC50 (OCI-AML2): 4900 nM
- IC50 (MCF7 [21]): 16300 nM

Molecule: Cc1c2ccccc2c(CSC(=N)N)c2ccccc12
- IC50 (MKN-45): 1200 nM
- IC50 (BGC-823): 1200 nM
- IC50 (SGC-7901): 1200 nM
- IC50 [22]: 1200 nM
- IC50 (HGC-27): 1200 nM
- IC50 (NCI-N87): 1200 nM
- IC50 (MCF7 [23]): 1500 nM
- IC50 (ZR-75-1): 1500 nM
- IC50 (ZR-75-30): 1500 nM
- IC50 (BT-474): 1500 nM
- IC50 (BT-549): 1500 nM
- IC50 (Prostatic carcinoma cell): 1500 nM
- IC50 (MDA-MB-175-VII): 1500 nM
- IC50 (Hs-578T): 1500 nM

- Kd (Protein Mdm4 [24]): 109000 nM
Molecule: Ac-ETFLDLWRLLLQN-NH2

Molecule: Cc1c(Cl)ccc2c(/C=C3\NC(=O)N(C(C(=O)NC(CO)CO)c4ccc(F)c(F)c4)C3=O)c[nH]c12 (stereo not given)
- IC50 (MCF7 [25]): 3500 nM
- IC50 (HCT-116 [26]): 3000 nM
- IC50 (RKO): 3200 nM
- IC50 (LNCaP [27]): 1100 nM
- IC50 (LNCaP C4-2): 1700 nM
- IC50 (SW480): > 50000 nM
- IC50 (MDA-MB-435): 25300 nM
- IC50 (LAPC4): 1200 nM
- IC50 (DU-145 [28]): 45500 nM
- IC50 (PC-3 [29]): 45300 nM

- IC50 [15]: > 50000 nM
Molecule: COc1cccc2c1NCC2C(=O)N[C@H]1CCN(c2ccc(C)cc2)C1 (stereo not given in full)
